Measured values from ChEMBL document CHEMBL1138616, “Molecular design, synthesis and docking study of benz[b]oxepines and 12-oxobenzo[c]phenanthridinones as topoisomerase 1 inhibitors” (Bioorg Med Chem Lett, 2009).
The source made the active and inactive calls. No cut-off for these calls is given here.

Columns and labels:
HL-60 = test: Cytotoxicity against human HL60 cells by sulforhodamine B assay; format: functional, cell-based
HeLa = test: Cytotoxicity against human HeLa cells by sulforhodamine B assay; format: functional, cell-based
A549 = test: Cytotoxicity against human A549 cells by sulforhodamine B assay; format: functional, cell-based
[1] = biological target: T1, DNA topoisomerase 1 (Homo sapiens) (UniProt P11387); test: Inhibition of DNA topoisomerase 1 assessed as relaxation of supercoiled Escherichia coli pBR322 DNA at 100 uM
T1 sequence (whole entry): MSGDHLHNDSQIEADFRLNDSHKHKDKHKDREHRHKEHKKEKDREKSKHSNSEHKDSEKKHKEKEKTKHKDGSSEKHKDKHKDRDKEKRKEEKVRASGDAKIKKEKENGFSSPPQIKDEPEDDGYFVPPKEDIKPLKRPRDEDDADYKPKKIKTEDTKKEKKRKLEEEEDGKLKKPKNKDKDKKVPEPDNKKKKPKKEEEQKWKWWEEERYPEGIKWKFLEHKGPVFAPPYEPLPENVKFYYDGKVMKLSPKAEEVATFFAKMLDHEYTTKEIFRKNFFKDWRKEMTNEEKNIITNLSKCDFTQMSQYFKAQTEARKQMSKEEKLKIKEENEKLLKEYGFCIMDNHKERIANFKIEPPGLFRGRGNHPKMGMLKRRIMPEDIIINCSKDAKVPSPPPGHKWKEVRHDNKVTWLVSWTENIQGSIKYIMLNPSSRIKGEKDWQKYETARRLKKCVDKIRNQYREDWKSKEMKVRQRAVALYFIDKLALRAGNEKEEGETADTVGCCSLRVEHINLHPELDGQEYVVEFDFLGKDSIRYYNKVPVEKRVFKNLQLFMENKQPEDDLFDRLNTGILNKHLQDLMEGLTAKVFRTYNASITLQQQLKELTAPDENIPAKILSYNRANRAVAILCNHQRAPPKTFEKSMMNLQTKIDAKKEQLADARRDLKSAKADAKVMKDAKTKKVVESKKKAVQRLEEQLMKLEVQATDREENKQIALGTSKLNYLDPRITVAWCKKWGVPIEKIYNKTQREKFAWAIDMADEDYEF

Row | SMILES | inhibition [1] | IC50 (HL-60) [µM] | IC50 (HeLa) [µM] | IC50 (A549) [µM]
1 | COc1ccc(Cn2c3c(c4cc(C)ccc4c2=O)CCOc2ccccc2-3)cc1 | inactive | 9.26 | 10.3 | > 100
2 | COc1cc2c3c(n(C)c(=O)c2cc1OC)-c1ccccc1OCC3 | 98.2% | 34.8 | 38.1 | 73
3 | COc1ccc(Cn2c3c(c4ccc(C)cc4c2=O)CCOc2ccccc2-3)cc1 | inactive | 4.4 | 4.54 | 4.56
4 | Cc1ccc2c(=O)n(C)c3c(c2c1)CCOc1ccccc1-3 | inactive | 33.6 | 41.6 | 61.3
5 | C=COc1ccccc1-c1c(Br)c2cc(C)ccc2c(=O)n1Cc1ccc(OC)cc1 | inactive | 29.2 | 14.8 | 67.8
6 | Cc1ccc2c3c(n(C)c(=O)c2c1)-c1ccccc1OC3C (stereo unspecified) | inactive | – | 21.9 | 66.9
7 | COc1cc2c3c(n(C)c(=O)c2cc1OC)-c1ccccc1OC3C (stereo unspecified) | 5.3% | 8.54 | 9.02 | 13.8
8 | COCOc1ccccc1-c1cc2cc(C)ccc2c(=O)n1C | inactive | 14.3 | 28.6 | 99.8
9 | CC[C@@]1(O)C(=O)OCc2c1cc1n(c2=O)Cc2cc3ccccc3nc2-1 [CAMPTOTHECIN] | – | 0.089 | 0.072 | 0.058
10 | COCOc1ccccc1-c1cc2ccccc2c(=O)[nH]1 | inactive | 0.62 | 0.62 | 23.6
11 | Cc1ccc2c(=O)n(C)c3c(c2c1)C(C)Oc1ccccc1-3 (stereo unspecified) | 30.4% | 29.1 | 28.3 | 46
12 | Cn1c2c(c3ccccc3c1=O)CCOc1ccccc1-2 | inactive | 37.6 | 19.7 | 66.8
13 | CC1Oc2ccccc2-c2c1c1ccccc1c(=O)n2C (stereo unspecified) | inactive | 30.1 | 40.1 | 65.5

Now from value to compound, other results behind:

Row | inhibition [1] | SMILES | IC50 (HL-60) [µM] | IC50 (HeLa) [µM] | IC50 (A549) [µM]
14 | inactive | COc1ccc(Cn2c(-c3ccccc3O)c(Br)c3ccccc3c2=O)cc1 | 31.6 | 36.8 | 71.2
15 | inactive | COCOc1ccccc1-c1cc2cc(C)ccc2c(=O)[nH]1 | 0.16 | 0.17 | > 100
16 | 94.5% | COc1ccc(Cn2c3c(c4ccccc4c2=O)CCOc2ccccc2-3)cc1 | 4.49 | 4.78 | 11
17 | 40.7% | COCOc1ccccc1-c1c(Br)c2cc(OC)c(OC)cc2c(=O)n1C | 37.8 | 99.3 | > 100
18 | inactive | COc1ccc(Cn2c(-c3ccccc3O)c(Br)c3cc(C)ccc3c2=O)cc1 | 24.4 | 20.4 | 53
19 | inactive | COCOc1ccccc1-c1c(Br)c2ccc(C)cc2c(=O)n1C | 17.2 | 17.8 | 82
20 | inactive | COCOc1ccccc1-c1cc2ccccc2c(=O)n1C | 59.5 | 64.6 | > 100
21 | 11.9% | Cc1ccc2c3c(n(C)c(=O)c2c1)-c1ccccc1OCC3 | 14.1 | 8.76 | 30.3
22 | inactive | C=COc1ccccc1-c1c(Br)c2ccccc2c(=O)n1Cc1ccc(OC)cc1 | 59.5 | 36.5 | > 100
